These are literature values, as cited in patent publication US20240299268A1, “A COMPOSITION FOR CARING FOR KERATIN MATERIALS” (L'OREAL, priority 2021, published 2024).

SMILES strings stand for the structures. Read-outs that look alike come from different tables or passages of the source.

As to `COc1cc(/C=C/C(=O)O)ccc1O` [Ferulic acid, 4-Hydroxy-3-methoxycinnamic acid], the “time until decarboxylation (loss in stability, unpleasant odor) when contacting with water” value (content of ferulic acid no less than 1 wt. %) is recorded as 30 days; the “time until decarboxylation (loss in stability, unpleasant odor) when contacting with water” value (content of ferulic acid no less than 1.5 wt. %) is 15 days; the “time until decarboxylation (loss in stability, unpleasant odor) when contacting with water” value (content of ferulic acid no less than 1.9 wt. %) is on record as 7 days.
